Ends that are not written are not given here.
Assays:
[1] = system: HUVECs; assay: Capillary-like tube formation assay of HUVECs; assay type: cell-based, human; conditions: PTX-equivalent concentrations of 80 nM
Protocol: The surface of 24-well plates is coated with Cultrex® basement membrane (50 μl/well; 10 mg/ml) on ice and then allowed to polymerize at 37° C. for 30 minutes. HUVECs (3×10^4) are seeded on coated plates in the presence of conditioned media of tumor cells treated with the conjugate and its controls. After 8 hours of incubation (37° C.; 5% CO2), wells are imaged using bright-field technique (Nikon TE2000E inverted microscope integrated with Nikon DS5 cooled CCD camera by 4× objective).
The effect of the PGA-PTX-DOX conjugate (Route 1, see, FIG. 18) on capillary-like tube formation of HUVECs was tested and compared to that of the free drugs, each alone and in combination, to that of PGA alone and to that of a PGA-PTX conjugate.
The effect of PGA, free PTX (80 nM), free C3, the conjugate PGA-C3, and the conjugates PGA-PTX and PGA-PTX-C3, at PTX-equivalent concentrations of 80 nM, on capillary-like tube formation of human umbilical vein endothelial cells (HUVEC) was evaluated, in order to confirm that anti-angiogenic properties of PTX are maintained after conjugation.

[2] = Zeta potential of conjugates; assay type: physicochemical; conditions: Table 13
[3] = Conjugate size by DLS analysis; assay type: physicochemical; conditions: estimated from DLS analysis
Source text: Based on DLS analysis, it is estimated that the conjugate is 10 nm in size, which is a suitable size for selective distribution by the EPR effect.

[4] = system: ES-2 cells; assay: ES-2 proliferation after 7 minutes treatment, wash and 72 hours in medium; assay type: cell-based, human; conditions: wash
Protocol: The effect of PGA, free PTX and the conjugates PGA-PTX, PGA-C3, and PGA-PTX-C3 on proliferation of ES-2 cells was evaluated after incubation of the cells with each treatment for 7 minutes, washing the cells and incubation in medium for 72 hours.
Short incubation time was selected since in the usual 72-hour incubation time, both the targeted and non-targeted conjugates would have had sufficient time to internalize into the cells. Under these experiment conditions, only the targeted conjugate remained bound to the cells, while non-targeted polymers or conjugates washed off, resulting in lower efficacy.

Substance: PGA-C3-PTX: PGA having attached C3 NCAM targeting peptide (SEQ ID NO:3) and PTX (GASKKPKRNIKA; also: conjugated to polyglutamic acid (PGA) and paclitaxel, site not given here)
- inhibition of capillary-like tube formation [1]: inhibited the formation of capillary-like tubes
- Zeta potential [2]: −27.3 mV
- size of the conjugate [3]: 10 nm
- inhibition of proliferation [4]: inhibited the proliferation of ES-2 cells more than non-targeted PGA-PTX

Reference: patent US10155047B2, “Polymers having therapeutically active agents conjugated thereto, processes of preparing same and uses thereof” (Ramot at Tel-Aviv University Ltd., priority 2012, dated 2018)
